According to patent publication US20120053076A1, “METHODS FOR IDENTIFICATION” (Cambridge Enterprise Limited, priority 2009, published 2012):
Where two headings read alike, the source gives them in different places.

Legend:
leukocytes = experiment: Chemokine-induced leukocyte migration (cells not specified); assay type: cell-based; conditions: description b37, b38
5HT2a = conditions: rodents, cited from earlier work
α2-adrenoreceptor [1] = conditions: radioligand RS-79948-197; Grainger et al. (2005); read-out: Apparent affinity at α2-adrenoreceptor; cited from earlier work
platelets = experiment: ADP-mediated platelet activation/aggregation; assay type: cell-based
α2-adrenoreceptor [2] = molecular target: T1, α2-adrenoreceptor; experiment: [3H]-dihydroergocryptine binding to α2-adrenoreceptor membranes; conditions: 5 nM [3H]-DHE
T1 construct: other: 5 nM [3H]-DHE
Experimental: Methods: Radioligand binding experiments were performed with commercially available membrane preparations from cells expressing the α2-adrenoreceptor (Sigma) in accordance with the manufacturer's instructions. […] Experiments were performed in triplicate, and non-specific binding was determined in the presence of an excess (10 μM) of oxymetazoline.

Jurkat T cells = experiment: SDF-1α induced migration of parental Jurkat T cells; assay type: cell-based, human
Experimental: Results: The level of the SDF-1α, receptor CXCR4 was similar on Jurkat-D3B and the parental Jurkat T cell line. Furthermore, the Jurkat-D3B cells responded to SDF-1α in a Transwell® chemotaxis assay (see Example 1 for the methodology employed) over a similar concentration range to the parental cell line.
Jurkat T cells and Jurkat-D3B cells were induced to migrate in response to 100 ng/ml SDF-1α (R&D systems; the concentration of SDF-1α which induced maximal cell migration in both lines). The BSCI BN83250 was then added at various concentrations between 0 nM and 1000 nM (each in triplicate) to both the upper and lower compartments (at the same concentration in each compartment, so as not to create a gradient of BSCI concentration). DMSO (1% final concentration) was used as the vehicle, and was present in all wells at equal concentration.

THP-1 cells = experiment: MCP-1 induced THP-1 cell migration, Transwell assay; assay type: cell-based, human; conditions: MCP-1 25 ng/ml
Experimental: Leukocyte migration was measured using the 96-well format micro Transwell® assay system from Neuroprobe (Gaithersburg, Md., USA). In principle, this assay consists of two chambers separated by a porous membrane. The chemoattractant is placed in the lower compartment and the cells are placed in the upper compartment.
The method was performed essentially as previously described (Reckless & Grainger (1999) Biochem. J. 340:803-11).
First, the cell suspension to be placed in the upper compartment was prepared. The THP-1 cells were pelleted by centrifugation (770×g; 4 mins) and washed with Geys Balanced Salt Solution with 1 mg/ml BSA (GBSS+BSA). This wash was then repeated, and the cells re-pelleted before being resuspended in a small volume of GBSS+BSA for counting, for example using a standard haemocytometer.
The volume of GBSS+BSA was then adjusted depending on the number of cells present so that the cells were at final density of 4.45×10^6 cells per ml of GBSS+BSA. This ensured that there were 100,000 THP-1 cells in each 25 μl of the solution to be placed in the upper chamber of the plate.
The suspension of THP-1 cells at 4.45×10^6 cells/ml was divided into three pots. […] To the second pot, the BSCI was added at the same concentration as in the first pot, but additionally the sstr2 antagonist was also added (for example BIM 23454 [Tulipano et al. (2002) 143:1218-24] or BIM 23627 were added at 66 nM final concentration from a stock solution in GBSS). To the third pot, GBSS+BSA plus vehicle as appropriate was added so that the volumes in three pots are equal, acting as a control.
Next, the chemoattractant solution to be placed in the lower compartment was prepared. MCP-1 was diluted in GBSS+BSA to give a final concentration of 25 ng/ml (after all additions). Note that, as recommended by Frow et al (Med. Res. Rev. 24:276-98) this is the concentration of MCP-1 which induces maximal migration in this system. This solution was divided into three pots, as for the cell suspension. To one pot, the BSCI was added to the same final concentration as was added to the cell suspension, in the second pot the BSCI and the sstr2 antagonist were both added at the same concentration as previously added to the cell suspension, while to the remaining pot GBSS+BSA plus vehicle as appropriate was added so that the volumes in the three pots were equal.
Once the chemoattractant solutions for the lower wells and cell solutions for the upper chambers were prepared, the migration chamber was assembled. 29 μl of the appropriate chemoattractant solution was placed into the lower well of the chamber. Assays were performed with at least triplicate determinations of each condition. Once all the lower chambers were filled, the porous membrane was applied to the chamber in accordance with the manufacturer's instructions. Finally, 25 μl of the appropriate cell solution was applied to each upper chamber. A plastic lid was placed over the entire apparatus to prevent evaporation.
The assembled chamber was incubated at 37° C., 5% CO2, for 2 hours.
At the end of the incubation, the liquid cell suspension was gently removed from the upper chamber, 20 μl of ice-cold 20 mM EDTA in PBS was added to the upper chamber, and the apparatus was incubated at 4° C. for 15 mins. This procedure caused any cells adhering to the underside of the membrane to fall into the lower chamber.
After this incubation the filter was carefully flushed with GBSS+BSA to wash off the EDTA, and then the filter was removed.
The number of cells migrated into the lower chamber under each condition can then be determined by a number of methods, including direct counting, labelling with fluorescent or radioactive markers or through the use of a vital dye. Typically, we utilised the vital dye MTT.

5HT2a receptor = molecular target: T2, 5HT2a receptor (Homo sapiens, UniProt P28223); experiment: [3H]-ketanserin binding to 5HT2a receptor membranes
T2 construct: purchased Sigma
Experimental: Methods: Radioligand binding experiments were performed with commercially available membrane preparations from cells expressing the 5HT2a receptor (Sigma) in accordance with the manufacturer's instructions. [^3H]-ketanserin was used as the radioligand probe (according to the method of Leysen et al. (1988) Pharmacol. Exp. Therap. 244:310-21) at 1 nM concentration (0.05 μCi per reaction). Experiments were performed in triplicate, and non-specific binding was determined in the presence of an excess (10 μM) of metergoline (a relatively non-specific ergot-derived serotonin receptor antagonist).

α2-adrenoreceptor [3] = experiment: Blood pressure; assay type: in vivo; conditions: description b37
[4] = molecular target: type 2 somatostatin receptor (sstr2), human (human) (UniProt P30874); experiment: cell-based or functional assay
type 2 somatostatin receptor (sstr2), human (human), sequence (P30874 whole entry): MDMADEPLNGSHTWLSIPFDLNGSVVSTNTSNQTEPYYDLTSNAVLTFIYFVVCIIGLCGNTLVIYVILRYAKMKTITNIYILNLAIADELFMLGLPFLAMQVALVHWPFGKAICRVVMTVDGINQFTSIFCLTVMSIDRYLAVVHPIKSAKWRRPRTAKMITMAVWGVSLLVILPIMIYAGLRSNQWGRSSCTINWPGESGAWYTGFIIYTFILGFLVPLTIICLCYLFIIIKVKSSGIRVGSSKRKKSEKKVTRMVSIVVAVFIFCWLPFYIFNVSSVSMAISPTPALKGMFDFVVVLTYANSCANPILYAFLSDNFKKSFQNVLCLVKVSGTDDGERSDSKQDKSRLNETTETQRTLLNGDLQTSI

T2 sequence (P28223 whole entry): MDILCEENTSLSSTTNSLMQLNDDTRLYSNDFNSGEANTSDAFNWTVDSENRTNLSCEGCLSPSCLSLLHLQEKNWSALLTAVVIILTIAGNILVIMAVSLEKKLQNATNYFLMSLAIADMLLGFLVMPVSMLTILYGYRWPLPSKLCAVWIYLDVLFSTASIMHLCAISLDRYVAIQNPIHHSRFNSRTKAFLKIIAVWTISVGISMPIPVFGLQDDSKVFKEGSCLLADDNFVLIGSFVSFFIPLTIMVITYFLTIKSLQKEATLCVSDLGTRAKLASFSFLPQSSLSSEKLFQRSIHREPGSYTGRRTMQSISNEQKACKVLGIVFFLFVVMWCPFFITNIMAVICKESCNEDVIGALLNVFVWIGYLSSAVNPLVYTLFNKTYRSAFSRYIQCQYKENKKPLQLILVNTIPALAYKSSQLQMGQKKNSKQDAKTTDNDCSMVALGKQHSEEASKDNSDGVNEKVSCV

## COc1cc(Br)c(OC)c2c1[C@H](CN)C2 [TCB-2]
leukocytes
  Effect on chemokine-induced leukocyte migration, in words: no effect on chemokine-induced leukocyte migration
5HT2a
  Head twitching by classical 5HT2a agonists: induce this classical effect
5HT2a; listed as TCB2
  Head twitching by classical 5HT2a agonists: powerfully induces head twitch

## NC(=O)C1CCC[C@H]2CN3CCc4c([nH]c5ccccc45)[C@@H]3C[C@H]12 (stereo partly shown) [Yohimban-16-amide]
α2-adrenoreceptor [1]
  Ki: 770 nM
platelets
  Effect on ADP-mediated platelet activation/aggregation: no effect on the activation of platelets in response to ADP
α2-adrenoreceptor [2]
  Apparent Ka, inhibition of [3H]-DHE binding: 89 ± 13 nM
Jurkat T cells
  Inhibition of SDF-1α induced migration of Jurkat T cells, in words: neither agent inhibits

## CN1C[C@H](C(=O)O)C=C2c3cccc4[nH]cc(c34)C[C@H]21 [lysergic acid]
THP-1 cells
  Inhibition of MCP-1 induced THP-1 cell migration, in words: neither agent inhibits
Jurkat T cells
  Inhibition of SDF-1α induced migration of Jurkat T cells, in words: neither agent inhibits
5HT2a receptor
  Ki: 49 ± 12 nM

## COC(=O)[C@H]1[C@H]2C[C@@H]3c4[nH]c5cc(OC)ccc5c4CCN3C[C@H]2C[C@@H](OC(=O)c2cc(OC)c(OC)c(OC)c2)[C@@H]1OC [reserpine]
leukocytes
  Effect on chemokine-induced leukocyte migration, in words: no effect on chemokine-induced leukocyte migration
α2-adrenoreceptor [3]
  Effect on blood pressure: powerfully lowers blood pressure

## cortistatin (peptide)
[4]
  ED50 for inhibition of MCP-1 induced THP-1 cell migration: 75 nM
